Patent US9499550B2 (BRISTOL-MYERS SQUIBB COMPANY, priority 2012, dated 2016)
pEC50: −log10 of the molar value. Read-outs that look alike come from different tables or passages of the source.

What was measured:
[1] = test system: HCV genotype 1b (Con1) replicon in HUH-7 cells; assay: HCV replicon luciferase reporter assay, genotype 1b; type: cell-based; conditions: HCV genotype 1b replicon luciferase, 3 days incubation
Summary of the method: (§1)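 Replicon inhibition for both genotypes was measured as Renilla luciferase signal (EnduRen, 7.5 μM final, 2 h) after 3-day, 37° C exposure of replicon-bearing HUH-7 cells in 4% FCS DMEM, 0.5% DMSO. The 1b construct carries S1179I; the 1a H77 construct carries P1496L and S2204I. Twenty-point, 3-fold dilutions were fitted four-parametrically for EC50, and CC50 was taken from multiplexed Cell Titer-Blue.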

[2] = test system: HCV genotype 1a (H77 strain) replicon in HUH-7 cells; assay: HCV replicon luciferase reporter assay, genotype 1a; type: cell-based; conditions: HCV genotype 1a replicon luciferase, 3 days incubation
Summary of the method: as §1

[3] = Hepatitis C virus, Huh-7, 72 h, read-out: LE_1b (EC50)
[4] = Hepatitis C virus, Huh-7, 72 h, read-out: LE_1b (EC50, range)
[5] = Hepatitis C virus, Huh-7, 72 h, read-out: LE_1a (EC50)
[6] = Hepatitis C virus, Huh-7, 72 h, read-out: LE_1a (EC50, range)

| Compound | pEC50 [1, 3] | pEC50 [1, 4] | pEC50 [2, 5] | pEC50 [2, 6] | pEC50 ([1]; read-out: LE_1b (EC50, range)) | pEC50 ([2]; read-out: LE_1a (EC50, range)) |
| --- | --- | --- | --- | --- | --- | --- |
| C[C@H]1CC/C=C\[C@@H]2C[C@@]2(C(=O)NS(=O)(=O)C2(C)CC2)NC(=O)[C@@H]2C[C@@H](Oc3nc4c(c5ccccc35)OCCC4)CN2C(=O)[C@@H](NC(=O)OC(C)(C)C(C)(F)F)[C@H](C)C1 [Compound 6033, 3,3-difluoro-2-methylbutan-2-yl((2R,6S,7R,9S,13aS,14aR,16aS,Z)-2-((3,4-dihydro-2H-pyrano[3,2-c]isoquinolin-6-yl)oxy)-7,9-dimethyl-14a-(((1-methylcyclopropyl)sulfonyl)carbamoyl)-5,16-dioxo-1,2,3,5,6,7,8,9,10,11,13a,14,14a,15,16,16a-hexadecahydrocyclopropa[e]pyrrolo[1,2-a][1,4]diazacyclopentadecin-6-yl)carbamate] | 8.36 | > 8.26 | 7.97 | 6.99 to 8.32 | – | – |
| C[C@@H]1CC/C=C\[C@@H]2C[C@@]2(C(=O)NS(=O)(=O)C2(C)CC2)NC(=O)[C@@H]2C[C@@H](Oc3nc4c(c5ccccc35)OCCC4)CN2C(=O)[C@@H](NC(=O)OC(C)(C)C(C)(F)F)[C@H](C)C1 [Compound 6034, 3,3-difluoro-2-methylbutan-2-yl((2R,6S,7R,9R,13aS,14aR,16aS,Z)-2-((3,4-dihydro-2H-pyrano[3,2-c]isoquinolin-6-yl)oxy)-7,9-dimethyl-14a-(((1-methylcyclopropyl)sulfonyl)carbamoyl)-5,16-dioxo-1,2,3,5,6,7,8,9,10,11,13a,14,14a,15,16,16a-hexadecahydrocyclopropa[e]pyrrolo[1,2-a][1,4]diazacyclopentadecin-6-yl)carbamate] | – | > 8.26 | – | > 8.26 | – | – |
| COc1cc2ccccc2c(O[C@@H]2C[C@H]3C(=O)N[C@]4(C(=O)NS(=O)(=O)C5CC5)C[C@H]4/C=C\CC[C@@H](C)C[C@@H](C)[C@H](NC(=O)OC(C)(C)C(C)(F)F)C(=O)N3C2)n1 [Compound 6036, 3,3-difluoro-2-methylbutan-2-yl((2R,6S,7R,9R,13aS,14aR,16aS,Z)-14a-((cyclopropylsulfonyl)carbamoyl)-2-((3-methoxyisoquinolin-1-yl)oxy)-7,9-dimethyl-5,16-dioxo-1,2,3,5,6,7,8,9,10,11,13a,14,14a,15,16,16a-hexadecahydrocyclopropa[e]pyrrolo[1,2-a][1,4]diazacyclopentadecin-6-yl)carbamate] | 9.42 | > 8.26 | 9.28 | > 8.26 | – | – |
| COc1cc2ccccc2c(O[C@@H]2C[C@H]3C(=O)N[C@]4(C(=O)NS(=O)(=O)C5(CF)CC5)C[C@H]4/C=C\CC[C@@H](C)C[C@@H](C)[C@H](NC(=O)OC(C)(C)C(C)(F)F)C(=O)N3C2)n1 [Compound 6038, 3,3-difluoro-2-methylbutan-2-yl((2R,6S,7R,9R,13aS,14aR,16aS,Z)-14a-(((1-(fluoromethyl)cyclopropyl)sulfonyl)carbamoyl)-2-((3-methoxyisoquinolin-1-yl)oxy)-7,9-dimethyl-5,16-dioxo-1,2,3,5,6,7,8,9,10,11,13a,14,14a,15,16,16a-hexadecahydrocyclopropa[e]pyrrolo[1,2-a][1,4]diazacyclopentadecin-6-yl)carbamate] | – | > 8.26 | – | > 8.26 | – | – |
| C[C@H]1CC/C=C\[C@@H]2C[C@@]2(C(=O)NS(=O)(=O)C2(CF)CC2)NC(=O)[C@@H]2C[C@@H](Oc3nc4c(c5ccccc35)OCCC4)CN2C(=O)[C@@H](NC(=O)OC(C)(C)C(C)(F)F)[C@H](C)C1 [Compound 6039, 3,3-difluoro-2-methylbutan-2-yl((2R,6S,7R,9S,13aS,14aR,16aS,Z)-2-((3,4-dihydro-2H-pyrano[3,2-c]isoquinolin-6-yl)oxy)-14a-(((1-(fluoromethyl)cyclopropyl)sulfonyl)carbamoyl)-7,9-dimethyl-5,16-dioxo-1,2,3,5,6,7,8,9,10,11,13a,14,14a,15,16,16a-hexadecahydrocyclopropa[e]pyrrolo[1,2-a][1,4]diazacyclopentadecin-6-yl)carbamate] | – | – | – | – | 7.46 to 8.30 | 7.46 to 8.30 |
| C[C@@H]1CC/C=C\[C@@H]2C[C@@]2(C(=O)NS(=O)(=O)C2(CF)CC2)NC(=O)[C@@H]2C[C@@H](Oc3nc4c(c5ccccc35)OCCC4)CN2C(=O)[C@@H](NC(=O)OC(C)(C)C(C)(F)F)[C@H](C)C1 [Compound 6040, 3,3-difluoro-2-methylbutan-2-yl((2R,6S,7R,9R,13aS,14aR,16aS,Z)-2-((3,4-dihydro-2H-pyrano[3,2-c]isoquinolin-6-yl)oxy)-14a-(((1-(fluoromethyl)cyclopropyl)sulfonyl)carbamoyl)-7,9-dimethyl-5,16-dioxo-1,2,3,5,6,7,8,9,10,11,13a,14,14a,15,16,16a-hexadecahydrocyclopropa[e]pyrrolo[1,2-a][1,4]diazacyclopentadecin-6-yl)carbamate] | – | – | – | – | 9.00 to 9.29 | 8.30 to 9.00 |
| C[C@@H]1CC/C=C\[C@@H]2C[C@@]2(C(=O)NS(=O)(=O)C2(CF)CC2)NC(=O)[C@@H]2C[C@@H](Oc3nc4c(c5ccccc35)CCCO4)CN2C(=O)[C@@H](NC(=O)OC(C)(C)C)[C@H](C)C1 [Compound 6042, tert-butyl ((2R,6S,7R,9R,13aS,14aR,16aS,Z)-2-((2,3-dihydro-1H-pyrano[2,3-c]isoquinolin-6-yl)oxy)-14a-(((1-(fluoromethyl)cyclopropyl)sulfonyl)carbamoyl)-7,9-dimethyl-5,16-dioxo-1,2,3,5,6,7,8,9,10,11,13a,14,14a,15,16,16a-hexadecahydrocyclopropa[e]pyrrolo[1,2-a][1,4]diazacyclopentadecin-6-yl)carbamate] | – | 9.00 to 9.29 | – | 8.30 to 9.00 | – | – |
| C[C@@H]1CC/C=C\[C@@H]2C[C@@]2(C(=O)NS(=O)(=O)C2(C)CC2)NC(=O)[C@@H]2C[C@@H](Oc3nc4c(c5ccccc35)CCCO4)CN2C(=O)[C@@H](NC(=O)OC(C)(C)C)[C@H](C)C1 [Compound 6044, tert-butyl ((2R,6S,7R,9R,13aS,14aR,16aS,Z)-2-((2,3-dihydro-1H-pyrano[2,3-c]isoquinolin-6-yl)oxy)-7,9-dimethyl-14a-(((1-methylcyclopropyl)sulfonyl)carbamoyl)-5,16-dioxo-1,2,3,5,6,7,8,9,10,11,13a,14,14a,15,16,16a-hexadecahydrocyclopropa[e]pyrrolo[1,2-a][1,4]diazacyclopentadecin-6-yl)carbamate] | – | 9.30 to 10.00 | – | 8.30 to 9.00 | – | – |
| C[C@@H]1CC/C=C\[C@@H]2C[C@@]2(C(=O)NS(=O)(=O)C2(C)CC2)NC(=O)[C@@H]2C[C@@H](Oc3nc4c(c5ccccc35)CCCO4)CN2C(=O)[C@@H](NC(=O)OC(C)(C)C(F)(F)F)[C@H](C)C1 [Compound 6046, 1,1,1-trifluoro-2-methylpropan-2-yl((2R,6S,7R,9R,13aS,14aR,16aS,Z)-2-((2,3-dihydro-1H-pyrano[2,3-c]isoquinolin-6-yl)oxy)-7,9-dimethyl-14a-(((1-methylcyclopropyl)sulfonyl)carbamoyl)-5,16-dioxo-1,2,3,5,6,7,8,9,10,11,13a,14,14a,15,16,16a-hexadecahydrocyclopropa[e]pyrrolo[1,2-a][1,4]diazacyclopentadecin-6-yl)carbamate] | – | 9.00 to 9.29 | – | 8.30 to 9.00 | – | – |
| C[C@@H]1CC/C=C\[C@@H]2C[C@@]2(C(=O)NS(=O)(=O)C2(C)CC2)NC(=O)[C@@H]2C[C@@H](Oc3nc4c(c5ccccc35)CCCO4)CN2C(=O)[C@@H](NC(=O)OC(C)(C)C(C)(F)F)[C@H](C)C1 [Compound 6048, 3,3-difluoro-2-methylbutan-2-yl((2R,6S,7R,9R,13aS,14aR,16aS,Z)-2-((2,3-dihydro-1H-pyrano[2,3-c]isoquinolin-6-yl)oxy)-7,9-dimethyl-14a-(((1-methylcyclopropyl)sulfonyl)carbamoyl)-5,16-dioxo-1,2,3,5,6,7,8,9,10,11,13a,14,14a,15,16,16a-hexadecahydrocyclopropa[e]pyrrolo[1,2-a][1,4]diazacyclopentadecin-6-yl)carbamate] | – | 9.30 to 10.00 | – | 8.30 to 9.00 | – | – |
| C[C@@H]1CC/C=C\[C@@H]2C[C@@]2(C(=O)NS(=O)(=O)C2(CF)CC2)NC(=O)[C@@H]2C[C@@H](Oc3nc4c(c5ccccc35)CCCO4)CN2C(=O)[C@@H](NC(=O)OC(C)(C)C(F)(F)F)[C@H](C)C1 [Compound 6050, 1,1,1-trifluoro-2-methylpropan-2-yl((2R,6S,7R,9R,13aS,14aR,16aS,Z)-2-((2,3-dihydro-1H-pyrano[2,3-c]isoquinolin-6-yl)oxy)-14a-(((1-(fluoromethyl)cyclopropyl)sulfonyl)carbamoyl)-7,9-dimethyl-5,16-dioxo-1,2,3,5,6,7,8,9,10,11,13a,14,14a,15,16,16a-hexadecahydrocyclopropa[e]pyrrolo[1,2-a][1,4]diazacyclopentadecin-6-yl)carbamate] | – | 9.30 to 10.00 | – | 8.30 to 9.00 | – | – |
| C[C@@H]1CC/C=C\[C@@H]2C[C@@]2(C(=O)NS(=O)(=O)C2(CF)CC2)NC(=O)[C@@H]2C[C@@H](Oc3nc4c(c5ccccc35)CCCO4)CN2C(=O)[C@@H](NC(=O)OC(C)(C)C(C)(F)F)[C@H](C)C1 [Compound 6052, 3,3-difluoro-2-methylbutan-2-yl((2R,6S,7R,9R,13aS,14aR,16aS,Z)-2-((2,3-dihydro-1H-pyrano[2,3-c]isoquinolin-6-yl)oxy)-14a-(((1-(fluoromethyl)cyclopropyl)sulfonyl)carbamoyl)-7,9-dimethyl-5,16-dioxo-1,2,3,5,6,7,8,9,10,11,13a,14,14a,15,16,16a-hexadecahydrocyclopropa[e]pyrrolo[1,2-a][1,4]diazacyclopentadecin-6-yl)carbamate] | – | 9.30 to 10.00 | – | 7.46 to 8.30 | – | – |
